Data reported in patent US10265132B2, “Antimicrobial elastomeric articles” (ALLEGIANCE CORPORATION, priority 2012, dated 2019).

How the values were obtained:
MRSA = experiment: Antimicrobial activity (log reduction) of coated gloves against MRSA, 5 minute exposure time; set-up: species or system methicillin-resistant Staphylococcus aureus
Protocol: (§1) Antimicrobial Activity: The antimicrobial activity of sample 1-1 was tested before and after aging against E. coli and MRSA with a 5 minute exposure time:
(§2) The coating composition and formulation fabrication remained the same as describe in Example 1. Sample 2-1 describes coated gloves that were stored in desiccated environments (described above in Example 1) before and after the application of the antimicrobial coating. Samples 2-2 and 2-3 represent coated gloves that were pre- and post-conditioned (using the technique described above in Example 1), respectively. Sample 2-4 describes coated gloves that were not desiccated before or after application of the antimicrobial coating. Samples 2-1 through 2-4 were tested before and after conditioning against E. coli and MRSA with a 5 minute exposure time.
The coating composition, formulation fabrication, and coating application method remained the same as described in Example 1. Antimicrobial gloves were packed into two packaging prototypes. The prototypes contained the antimicrobial coated gloves and the prototypes were subjected to outside conditions meant to simulated real world conditions experienced by medical glove products. Sample 4-1 is a control glove that was not packaged. Sample 4-2 is a packaging prototype comprised of Amcor aluminum foil laminate packaging containing antimicrobial-coated gloves and desiccant. […]
(§3) The formulation fabrication and coating application were the same as described in Example 1. […] These formulations were then applied to the gloves and the concentration of CHG needed on the coated glove in order to achieve at least 4 log efficacy was measured. The concentration of CHG was measured using UV-Visible spectroscopy with the assistance of a sodium hypobromite indicator. CHG was extracted from the glove using water and the unknown concentration was calculated versus a predetermined standard curve. The antimicrobial efficacy after an exposure time of 5 minutes was determined against E. coli and MRSA.

[1] = tested on: broad spectrum of microbes; experiment: Minimum concentration of CHG on coated glove needed for 4 log efficacy in 5 minutes; conditions: 5 minutes exposure, E. coli and MRSA
Protocol: The formulation fabrication and coating application were the same as described in Example 1. The concentration of the active component, CHG, was varied in the formulation. These formulations were then applied to the gloves and the concentration of CHG needed on the coated glove in order to achieve at least 4 log efficacy was measured. The concentration of CHG was measured using UV-Visible spectroscopy with the assistance of a sodium hypobromite indicator. CHG was extracted from the glove using water and the unknown concentration was calculated versus a predetermined standard curve. The antimicrobial efficacy after an exposure time of 5 minutes was determined against E. coli and MRSA.

E. coli = experiment: Antimicrobial activity (log reduction) of coated gloves against E. coli, 5 minute exposure time
Protocol: as §1, §2
The coating composition, formulation fabrication, and coating application method remained the same as described in Example 1, Sample 3-1 describes antimicrobial-coated gloves that were exposed to 23° C. with a relative humidity of 45%. Sample 3-2 describes antimicrobial-coated gloves that were exposed to 23° C. with a relative humidity of 55%. Sample 3-3 describes antimicrobial-coated gloves that were exposed to 23° C. with a relative humidity of 75%. All samples were tested after one and two weeks exposure to the temperature and humidity levels. Antimicrobial efficacy was recorded against E. coli after a 5 minute exposure time. […]
as §3

[2] = CHG concentration on glove 2.09 μg/cm^2, 5 minutes exposure
[3] = CHG concentration on glove 7.63 μg/cm^2, 5 minutes exposure
[4] = CHG concentration on glove 11.90 μg/cm^2, 5 minutes exposure

With `N=C(NCCCCCCNC(=N)NC(=N)Nc1ccc(Cl)cc1)NC(=N)Nc1ccc(Cl)cc1.O=C(O)[C@H](O)[C@@H](O)[C@H](O)[C@H](O)CO.O=C(O)[C@H](O)[C@@H](O)[C@H](O)[C@H](O)CO` [CHG, chlorhexidine digluconate] the “Log Reduction MRSA” value (MRSA; [2]) was 3.08 log, the “Log Reduction MRSA” value (MRSA; [3]) was 4.16 log and the “Log Reduction MRSA” value (MRSA; [4]) was 4.06 log. The “CHG needed to offer 4 log antimicrobial efficacy” value [1] was “about 7.6 μg”, the “Log Reduction E. coli” value (E. coli; [2]) was 1.67 log and the “Log Reduction E. coli” value (E. coli; [3]) was 4.18 log. The “Log Reduction E. coli” value (E. coli; [4]) was 4.72 log.
